Assay results published in US12698507B2, “Methods and compositions for conferring and/or enhancing herbicide tolerance using protoporphyrinogen IX oxidase of various cyanobacteria or variant thereof” (FarmHannong Co., Ltd., priority 2019, dated 2026).
Where two headings read alike, the source gives them in different places.

Columns and labels:
[1] = target: Thermosynechococcus vulcanus NIES-2134 protoporphyrinogen IX oxidase CyPPO18, wild type, SEQ ID NO: 3 (MBP fusion) (Thermosynechococcus vestitus, UniProt Q8DLV2); type: biochemical; conditions: CyPPO18 WT; 50 μM protoporphyrinogen IX, pH 7.5, room temperature, 30 min
[2] = tested on: PPO-deficient BT3 E. coli (ΔPPO) transformed with CyPPO19 variant R89A+F360I (Thermosynechococcus elongatus PKUAC-SCTE542, SEQ ID NO: 1); test: Herbicide tolerance test in E. coli, CyPPO19 R89A+F360I; type: cell-based; conditions: LB agar, 0 to 2,000 μM herbicide, 37° C., 16-20 hours
Text: (§1) To enhance the PPO-inhibiting herbicide resistance of CyPPO19 and CyPPO18, PPO variant genes of the above example 2 were constructed. They were transformed to BT3 (ΔPPO) strain which is deficient of PPO activity and cultured in LB media with PPO-inhibiting herbicide, thereby examining whether growth of transformed BT3 was not inhibited.
(§2) BT3 competent cells were transformed with the pET303-CyPPO19 (wild type), pET303-CyPPO18 (wild type) plasmids, and those with a mutation(s) constructed (refer to example 2) via heat shock method, and were cultured in LB agar media containing ampicillin.
(§3) Single colony transformed with each CyPPO gene was cultured in 3 mL of LB broth (LPSS) containing ampicillin for more than 12 hours, and then was subcultured in LB broth until absorbance (OD600) reached 0.5 to 1. Then, it was diluted with LB broth to OD600=0.5. Again, the diluted solution was serially diluted 4 times by a factor of one tenth. […]
(§4) Then, 10 μL of each diluted solution of E. coli was dropped on the plate and cultured at 37° C. under dark for 16-20 hours. PPO-inhibiting herbicide resistance was evaluated with the extent of E. coli growth containing each gene was observed.
(§5) The extent of herbicide resistance was evaluated by the relative growth of variants to that of wild type, and listed in Tables 9 and 10 and FIGS. 3 to 32. […]

[3] = tested on: PPO-deficient BT3 E. coli (ΔPPO) transformed with CyPPO19 variant R89A+F360L (Thermosynechococcus elongatus PKUAC-SCTE542, SEQ ID NO: 1); test: Herbicide tolerance test in E. coli, CyPPO19 R89A+F360L; type: cell-based; conditions: LB agar, 0 to 2,000 μM herbicide, 37° C., 16-20 hours
Text: as §1, §2, §3, §4, §5

[4] = tested on: PPO-deficient BT3 E. coli (ΔPPO) transformed with CyPPO19 variant R89A+F360T (Thermosynechococcus elongatus PKUAC-SCTE542, SEQ ID NO: 1); test: Herbicide tolerance test in E. coli, CyPPO19 R89A+F360T; type: cell-based; conditions: LB agar, 0 to 2,000 μM herbicide, 37° C., 16-20 hours
Text: as §1, §2, §3, §4, §5

[5] = tested on: PPO-deficient BT3 E. coli (ΔPPO) transformed with CyPPO18 variant A167L+F360I (Thermosynechococcus vulcanus NIES-2134, SEQ ID NO: 3); test: Herbicide tolerance test in E. coli, CyPPO18 A167L+F360I; type: cell-based; conditions: LB agar, 0 to 2,000 μM herbicide, 37° C., 16-20 hours
Text: as §1, §2, §3, §4, §5

[6] = tested on: PPO-deficient BT3 E. coli (ΔPPO) transformed with CyPPO18 variant V165C+A167L+F360I (Thermosynechococcus vulcanus NIES-2134, SEQ ID NO: 3); test: Herbicide tolerance test in E. coli, CyPPO18 V165C+A167L+F360I; type: cell-based; parameters: key to the marks not given beside the values; conditions: LB agar, 0 to 2,000 μM herbicide, 37° C., 16-20 hours
Text: as §1, §2, §3, §4, §5

[7] = tested on: PPO-deficient BT3 E. coli (ΔPPO) transformed with CyPPO18 variant V165S+A167L+V305M+F360I (Thermosynechococcus vulcanus NIES-2134, SEQ ID NO: 3); test: Herbicide tolerance test in E. coli, CyPPO18 V165S+A167L+V305M+F360I; type: cell-based; parameters: key to the marks not given beside the values; conditions: LB agar, 0 to 2,000 μM herbicide, 37° C., 16-20 hours
Text: as §1, §2, §3, §4, §5

[8] = target: Thermosynechococcus elongatus PKUAC-SCTE542 protoporphyrinogen IX oxidase CyPPO19 (SEQ ID NO: 1) variant V165S (MBP fusion) (Thermosynechococcus sichuanensis, UniProt A0A7D6JSC1, V165S); test: biochemical; conditions: 50 μM protoporphyrinogen IX, pH 7.5, room temperature, 30 min, 10,000 means equivalent to or higher
[9] = target: Thermosynechococcus elongatus PKUAC-SCTE542 protoporphyrinogen IX oxidase CyPPO19 (SEQ ID NO: 1) variant A167I (MBP fusion) (Thermosynechococcus sichuanensis, UniProt A0A7D6JSC1, A167I); test: biochemical; conditions: 50 μM protoporphyrinogen IX, pH 7.5, room temperature, 30 min, 10,000 means equivalent to or higher
[10] = target: Thermosynechococcus elongatus PKUAC-SCTE542 protoporphyrinogen IX oxidase CyPPO19 (SEQ ID NO: 1) variant A167L (MBP fusion) (Thermosynechococcus sichuanensis, UniProt A0A7D6JSC1, A167L); test: biochemical; conditions: 50 μM protoporphyrinogen IX, pH 7.5, room temperature, 30 min, 10,000 means equivalent to or higher
[11] = target: Thermosynechococcus elongatus PKUAC-SCTE542 protoporphyrinogen IX oxidase CyPPO19 (SEQ ID NO: 1) variant V305M (MBP fusion) (Thermosynechococcus sichuanensis, UniProt A0A7D6JSC1, V305M); test: PPO enzyme inhibition assay (IC50 for herbicides), CyPPO19 V305M fused to MBP; type: biochemical
[12] = target: Thermosynechococcus elongatus PKUAC-SCTE542 protoporphyrinogen IX oxidase CyPPO19 (SEQ ID NO: 1) variant V305L (MBP fusion) (Thermosynechococcus sichuanensis, UniProt A0A7D6JSC1, V305L); test: PPO enzyme inhibition assay (IC50 for herbicides), CyPPO19 V305L fused to MBP; type: biochemical
[13] = target: Thermosynechococcus vulcanus NIES-2134 protoporphyrinogen IX oxidase CyPPO18 (SEQ ID NO: 3) variant R89A (MBP fusion) (Thermosynechococcus vestitus, UniProt Q8DLV2, R89A); test: PPO enzyme inhibition assay (IC50 for herbicides), CyPPO18 R89A fused to MBP; type: biochemical; conditions: 50 μM protoporphyrinogen IX, pH 7.5, room temperature, 30 min
[14] = target: Thermosynechococcus vulcanus NIES-2134 protoporphyrinogen IX oxidase CyPPO18 (SEQ ID NO: 3) variant V305M (MBP fusion) (Thermosynechococcus vestitus, UniProt Q8DLV2, V305M); test: PPO enzyme inhibition assay (IC50 for herbicides), CyPPO18 V305M fused to MBP; type: biochemical; conditions: 50 μM protoporphyrinogen IX, pH 7.5, room temperature, 30 min
Chain of Thermosynechococcus vulcanus NIES-2134 protoporphyrinogen IX oxidase CyPPO18 (SEQ ID NO: 3) variant V305M (MBP fusion) (Q8DLV2 entry or part of it V305M): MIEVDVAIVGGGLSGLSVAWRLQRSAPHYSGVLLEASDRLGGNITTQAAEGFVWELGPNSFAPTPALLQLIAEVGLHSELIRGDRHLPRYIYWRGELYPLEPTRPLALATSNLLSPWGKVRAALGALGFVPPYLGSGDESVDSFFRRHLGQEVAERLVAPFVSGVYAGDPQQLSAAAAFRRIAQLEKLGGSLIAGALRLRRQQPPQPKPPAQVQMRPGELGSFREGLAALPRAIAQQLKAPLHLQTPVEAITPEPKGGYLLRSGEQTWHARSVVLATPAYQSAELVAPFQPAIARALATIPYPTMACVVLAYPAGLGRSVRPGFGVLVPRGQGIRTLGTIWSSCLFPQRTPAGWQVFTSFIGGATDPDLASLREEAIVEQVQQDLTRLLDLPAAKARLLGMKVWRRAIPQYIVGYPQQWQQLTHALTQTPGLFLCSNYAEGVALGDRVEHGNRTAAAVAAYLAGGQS

Chain of Thermosynechococcus elongatus PKUAC-SCTE542 protoporphyrinogen IX oxidase CyPPO19 (SEQ ID NO: 1) variant A167I (MBP fusion) (A0A7D6JSC1 entry or part of it A167I): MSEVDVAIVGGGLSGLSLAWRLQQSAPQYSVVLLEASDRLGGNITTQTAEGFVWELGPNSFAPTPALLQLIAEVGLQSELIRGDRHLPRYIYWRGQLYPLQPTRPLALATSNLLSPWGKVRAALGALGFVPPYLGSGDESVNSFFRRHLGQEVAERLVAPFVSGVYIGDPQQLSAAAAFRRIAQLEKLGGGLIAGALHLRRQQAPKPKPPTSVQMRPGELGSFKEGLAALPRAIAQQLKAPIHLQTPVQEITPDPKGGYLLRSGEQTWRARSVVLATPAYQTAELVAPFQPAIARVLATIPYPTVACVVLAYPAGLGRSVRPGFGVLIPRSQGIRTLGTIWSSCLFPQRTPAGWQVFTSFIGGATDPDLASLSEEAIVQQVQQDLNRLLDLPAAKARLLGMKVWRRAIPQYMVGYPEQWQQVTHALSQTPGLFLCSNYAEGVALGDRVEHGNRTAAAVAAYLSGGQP
Chain of Thermosynechococcus elongatus PKUAC-SCTE542 protoporphyrinogen IX oxidase CyPPO19 (SEQ ID NO: 1) variant V305L (MBP fusion) (A0A7D6JSC1 entry or part of it V305L): as the sequence (A0A7D6JSC1 entry or part of it A167I) above, with I167A, V305L counted along it
Chain of Thermosynechococcus elongatus PKUAC-SCTE542 protoporphyrinogen IX oxidase CyPPO19 (SEQ ID NO: 1) variant V305M (MBP fusion) (A0A7D6JSC1 entry or part of it V305M): as the sequence (A0A7D6JSC1 entry or part of it A167I) above, with I167A, V305M counted along it
Chain of Thermosynechococcus vulcanus NIES-2134 protoporphyrinogen IX oxidase CyPPO18 (SEQ ID NO: 3) variant R89A (MBP fusion) (Q8DLV2 entry or part of it R89A): as the sequence (Q8DLV2 entry or part of it V305M) above, with R89A, M305V counted along it
Chain of Thermosynechococcus elongatus PKUAC-SCTE542 protoporphyrinogen IX oxidase CyPPO19 (SEQ ID NO: 1) variant V165S (MBP fusion) (A0A7D6JSC1 entry or part of it V165S): as the sequence (A0A7D6JSC1 entry or part of it A167I) above, with V165S, I167A counted along it
Chain of Thermosynechococcus vulcanus NIES-2134 protoporphyrinogen IX oxidase CyPPO18, wild type, SEQ ID NO: 3 (MBP fusion) (Q8DLV2 entry or part of it): as the sequence (Q8DLV2 entry or part of it V305M) above, with M305V counted along it
Chain of Thermosynechococcus elongatus PKUAC-SCTE542 protoporphyrinogen IX oxidase CyPPO19 (SEQ ID NO: 1) variant A167L (MBP fusion) (A0A7D6JSC1 entry or part of it A167L): as the sequence (A0A7D6JSC1 entry or part of it A167I) above, with I167L counted along it

Compound	IC50 [1] [µM]	tolerance level (relative growth of variant to wild type) [2]	tolerance level (relative growth of variant to wild type) [3]	tolerance level (relative growth of variant to wild type) [4]	tolerance level (relative growth of variant to wild type) [5]	tolerance level (relative growth of variant to wild type) [6]	tolerance level (relative growth of variant to wild type) [7]	IC50 [8] [µM]	IC50 [9] [µM]	IC50 [10] [µM]	IC50 ([11]; CyPPO19 V305M, 50 μM protoporphyrinogen IX, pH 7.5, room temperature, 30 min) [µM]	IC50 ([12]; CyPPO19 V305L, 50 μM protoporphyrinogen IX, pH 7.5, room temperature, 30 min) [µM]	IC50 [13] [µM]	IC50 [14] [µM]	IC50 ([8]; read-out: IC50) [µM]	IC50 ([9]; read-out: IC50) [µM]	IC50 ([10]; read-out: IC50) [µM]	IC50 [11] [µM]	IC50 [12] [µM]
Cc1nn(-c2cc(CC(Cl)C(=O)O)c(Cl)cc2F)c(=O)n1C(F)F (stereo not shown) [Carfentrazone]	0.566	+	+	+	++	++	++	≥ 10	≥ 10	≥ 10	0.91	1.33	0.872	1.61	–	–	–	–	–
CCOc1cc(Oc2ccc(C(F)(F)F)cc2Cl)ccc1[N+](=O)[O-] [Oxyfluorfen]	0.103	+	+	+	+	++	++	–	–	–	–	–	0.491	0.355	1.67	1.33	5.26	0.732	0.793
